One data set relates to APOE4/5×FAD mice. Conditions: mouse, in vivo.
Data set [1] relates to APOE. The note with it: E4 pericytes, earlier work of the inventors; cited from earlier work.
Data set [2] has as its system APOE. The experiment in a line: APOE expression by qRT-PCR in APOE4/4 pericytes treated with cyclosporin analogs. The class given is cell-based, human. The note with it: compared with cyclosporin A and FK506. The source says: FIGS. 2A-2D show APOE expression measured by qRT-PCR in APOE4/4 pericytes following treatment with Cyclosporin A (FIG. 2A), FK506 (FIG. 2B), Cyclosporin D (FIG. 2C), Cyclosporin H (FIG. 2D). One-way ANOVA with Bonferroni's Multiple Comparison test, 6 replicates per a timepoint.
FK506 and cyclosporin A can reduce the expression of APOE in human pericytes and brain cells and reverse or prevent cerebrovascular pathologies associated with Alzheimer's Disease such as cerebral amyloid angiopathy. Both cyclosporine A and FK506 have immunosuppressant activity. […] Results showing APOE expression after APOE4 pericytes were treated with Cyclosporin analogs for two weeks are depicted in FIG. 1. Following treatment with Cyclosporin A, FK506, Cyclosporin D, Cyclosporin H, APOE expression was measured by qRT-PCR in APOE4/4 pericytes (see FIGS. 2A-2D).

Turning to `C=CC[C@@H]1/C=C(\C)C[C@H](C)C[C@H](OC)[C@H]2O[C@@](O)(C(=O)C(=O)N3CCCC[C@H]3C(=O)O[C@H](/C(C)=C/[C@@H]3CC[C@@H](O)[C@H](OC)C3)[C@H](C)[C@@H](O)CC1=O)[C@H](C)C[C@@H]2OC` [FK506], the “toxicity compared to cyclosporine treated mice” value in the data set with APOE4/5×FAD mice is listed as “less toxicity”.

For `O=C1C=CC(=O)C2=C1C1c3ccccc3C2c2ccccc21` [INCA6], in the data set with APOE [1], the APOE gene expression entry is listed as “reduction” and the APOE protein result is “reduction”.

Consider `C/C=C/C[C@@H](C)[C@@H](O)[C@H]1C(=O)N[C@@H](C(C)C)C(=O)N(C)CC(=O)N(C)[C@@H](CC(C)C)C(=O)N[C@@H](C(C)C)C(=O)N(C)[C@@H](CC(C)C)C(=O)N[C@@H](C)C(=O)N[C@H](C)C(=O)N(C)[C@@H](CC(C)C)C(=O)N(C)[C@@H](CC(C)C)C(=O)N(C)[C@@H](C(C)C)C(=O)N1C` [cyclosporin D], for which, in the data set with APOE [2], the “kinetics of APOE expression reduction” value is reported as “faster kinetics” and the “potency in reducing APOE expression (able to reduce at lower doses)” value is “significantly more potent”.

Source of the values: US12201669B2, “Small molecule suppressors of APOE gene expression and cerebral vascular amyloid pathology” (Massachusetts Institute of Technology, priority 2021, dated 2025).
